From patent publication US20090181904A1, “METHOD FOR REGULATING NUTRIENT ABSORPTION WITH GINSENOSIDES” (priority 2005, published 2009)

Key:
Assay type in all cases: cell-based, human
Caco-2 cell monolayer = test: Arginine absorption assay (transport across Caco-2 monolayer, 3H-arginine); settings: for Transport rate (arginine): 10 mM L-arginine
Protocol: In measuring transport of arginine across the Caco-2 cell monolayer, both sides of the transwells were washed with arginine incubation buffer consisting of: 137 mM NaCl, 10 mM Hepes, 0.3 mM NaH2PO4, 0.3 mM K2HPO4, 5.4 mM KCl, 2.8 mM CaCl2, 1 mM MgSO4, 10 mM glucose, adjusted to pH 7.4. Then, the cell layer was pre-incubated in the incubation buffer at 37° C. for 1 h. The volumes of incubation buffer were 0.2 mL and 0.9 mL in the apical and basolateral chambers, respectively. The cells were replaced with fresh incubation medium in both chambers prior to the transport experiment. The transport experiment was initiated by replacing the incubation solution on the apical side with solution containing 10 mM of L-arginine in which 0.125 μCi/mL of L-[^3H]-arginine was included. At designated time intervals, 10 μL-solution samples were removed from the basolateral side and radioactivity of each sample was counted using a microplate liquid scintillation counter (TopCount, Packard NXT). During the experiment, when a 10 μL-solution sample was removed from the basolateral side every time, 10 μL buffer was supplemented to keep the volume constant. The uptake of [^3H]-mannitol was used to correct for nonspecific transport of molecules across the monolayer membrane. Results were expressed as the nanomoles of arginine transport across the Caco-2 cell monolayers with respect to time in minutes (nmol/min).

Caco2 cell monolayer = test: Glucose absorption assay (transport across Caco2 monolayer in transwell, 14C-glucose); settings: for Transport rate (glucose): 2 days pretreatment, 25 mM glucose
Protocol: For glucose absorption assay, 0.3 mL (10^5 cell/ml) of Caco2 cells were seeded into the apical chamber of each transwell and the basolateral chamber was added with 1 ml of culture medium (as indicated above). Costar transwell inserts (No. 3414, Corning Incorporated, NY, USA) separate each well in 24-well plates into an apical chamber (defined as a chamber above the insert) and a basolateral chamber (defined as a chamber below the insert). The culture medium in each transwell was changed every 2 days in both of the apical and basolateral chambers. To ensure the integrity of tight junction of Caco2 monolayer membrane formed in the transwell, a Trans-Epithelial Electrical Resistance (TEER) assay was conducted using Millicell®-ERS (Millipore EVOM-6; World Precision Instrument, Sarasota, Fla., USA) to measure the TEER between apical and basolateral chambers of the transwell. As the measured TEER reached 300 to 450 Ωcm^2 with the presence of differentiated brush border on the […] side of the cell on the 14th to 21st day of the culture, the Caco2 monolayer was ready for the glucose absorption test. The TEER values were taken before, during, and after each experiment to justify consistency of the data collected.
Glucose absorption was initiated by replacing the culture medium in the basolateral chamber with fresh glucose absorption buffer and the culture medium in the apical chamber with 0.2 mL of the glucose absorption buffer containing 2 μCi/ml of radioactive D-[^14C]-glucose (60 Ci/mmol, American Radiolabeled Chemicals, ARC, St. Louis, Mo., USA) and unlabeled cold glucose to give glucose at a final concentration of 25 mM. A series of five 10-μL samples were taken from the basolateral chamber at every 5 or 10 minute intervals. In order to maintain the constant buffer volume, same amount of sample buffer were added back to the basolateral chamber after withdrawn of each sample. The samples were transferred to the filter-bottomed UniFilter plates (Perkin-Elmer, Wellesley, Mass., USA) and dried in a vacuum oven at 37° C. The bottom of the UniFilter plate was sealed and 25 μL of the counting solution were added into each well. Adhesive plate sealers were used in place of the lids and radioactivity of each sample was counted using the microplate liquid scintillation counter (TopCount, Packard NXT, Packard BioScience Company, Meriden, Conn., USA). The effect of test compounds on glucose absorption was expressed as the nmoles of glucose accumulated in the basolateral chamber with respect to time in minutes (nmol/min). The glucose absorption rate was obtained by calculating the slope of the straight line from the time zero to the end point of the graphic data of each figure.

Caco2 cells = test: Folate uptake assay (3H-folate uptake in Caco2 cells); settings: compound 0.1 μM; for Transport rate (folate uptake): 2 days pretreatment, 5 μM folate, pH 6.0
Protocol: The Caco2 cells were subjected to folate uptake test in a manner similar to that described in the glucose uptake assay in Example 1 above. In the folate uptake test, the Caco2 cells were pretreated with the culture medium containing 5% FBS and purified ginsenosides at a concentration of […] for 2 days before the cells were cultured in a folate uptake buffer (Hank's balanced salt solution, supplemented with 0.14 g/L CaCl2, 0.1 g/L MgCl2, and 0.1 g/L MgSO4, pH 6.0) for 1 hour. The buffer was then aspirated, and uptake was initiated by adding 0.2 mL of fresh folate uptake buffer containing 2 μCi/mL radioactive folate (3,5,7,9-^3H-folic acid, 25 mCi/mmol, ARC) and cold, unlabeled folate giving a final folate concentration of 5 μM. Folate uptake was terminated by removing the uptake buffer at designated time intervals. The cells were then washed three times with ice-cold PBS and lysed by adding 0.2 mL of 0.2 N NaOH, followed by incubating at 65° C. for 20 min. Intracellular uptake of ^3H-folate was determined by transferring 20 μL of the cell lysate to the filter-bottomed UniFilter plates (Perkin-Elmer) and counting as described previously in Example 1. The amount of folate accumulated in the cells was calculated and normalized to protein concentration, and uptake rate was expressed as picomoles of folate per minutes per milligram of cell protein (pmol/min/mg). Protein concentration was determined by a standard Bicinchoninic acid (BCA) protein assay as described above.

SMILES	Percentage (arginine transport, control = 100) (Caco-2 cell monolayer; compound 0.01 μM) [%]	Transport rate (arginine) (Caco-2 cell monolayer; compound 0.01 μM) [nmol/min]	Percentage (arginine transport, control = 100) (Caco-2 cell monolayer; compound 0.1 μM) [%]	Transport rate (arginine) (Caco-2 cell monolayer; compound 0.1 μM) [nmol/min]	Percentage (arginine transport, control = 100) (Caco-2 cell monolayer; compound 1 μM) [%]	Transport rate (arginine) (Caco-2 cell monolayer; compound 1 μM) [nmol/min]	effect on glucose absorption (in words) (Caco2 cell monolayer)	Percentage (glucose transport, control = 100) (Caco2 cell monolayer; compound 0.01 μM) [%]	Transport rate (glucose) (Caco2 cell monolayer; compound 0.01 μM) [nmol/min]	Percentage (glucose transport, control = 100) (Caco2 cell monolayer; compound 0.1 μM) [%]	Transport rate (glucose) (Caco2 cell monolayer; compound 0.1 μM) [nmol/min]	Percentage (glucose transport, control = 100) (Caco2 cell monolayer; compound 1 μM) [%]	Transport rate (glucose) (Caco2 cell monolayer; compound 1 μM) [nmol/min]	Percentage (folate uptake, control = 100) (Caco2 cells) [%]	folate uptake versus non-treated control (in words, FIG. 5) (Caco2 cells)	Transport rate (folate uptake) (Caco2 cells) [pmol/mg/min]	glucose transport rate (in words, FIG. 1) (Caco2 cell monolayer; compound 0.1 μM to 5 μM)
CC(C)=CCC[C@](C)(O)C1CC[C@]2(C)C1C(O)CC1[C@@]3(C)CCC(O)C(C)(C)C3C(OC3OC(CO)C(O)C(O)C3O)C[C@]12C (some centres unmarked) [Rh1, ginsenoside Rh1]	105.56	11.2792 ± 0.7768	109.13	11.6615 ± 0.8085	134.02	14.3209 ± 0.7418	inhibitory effect	62.20	1.3568 ± 0.1090	74.86	1.6329 ± 0.1976	61.02	1.3310 ± 0.8356	49.36	decreased	0.8494 ± 0.453	–
CC(C)=CCC[C@](C)(O)[C@H]1CC[C@]2(C)[C@@H]1[C@H](O)C[C@@H]1[C@@]3(C)CC[C@H](O)C(C)(C)[C@@H]3[C@@H](O)C[C@]12C [Rga, 20(S)-protopanaxatriol]	118.16	12.6265 ± 0.9875	100.66	10.7555 ± 0.4532	95.38	10.1920 ± 1.2390	–	116.69	2.5454 ± 0.7808	167.15	3.6462 ± 0.4105	104.01	2.2689 ± 0.2598	–	–	–	–
CC(C)=CCC[C@](C)(O[C@@H]1O[C@H](CO)[C@@H](O)[C@H](O)[C@H]1O)[C@H]1CC[C@]2(C)[C@@H]1[C@H](O)C[C@@H]1[C@@]3(C)CC[C@H](O)C(C)(C)[C@@H]3[C@@H](O)C[C@]12C [GF1, ginsenoside F1]	126.74	13.5425 ± 1.8630	118.73	12.6865 ± 0.2964	97.06	10.3711 ± 0.6574	–	141.12	3.0783 ± 0.9550	153.80	3.3551 ± 0.3248	150.65	3.2862 ± 0.3429	–	–	–	–
CC(C)=CCC[C@](C)(O[C@@H]1O[C@H](CO[C@@H]2O[C@H](CO)[C@@H](O)[C@H](O)[C@H]2O)[C@@H](O)[C@H](O)[C@H]1O)[C@H]1CC[C@]2(C)[C@@H]1[C@H](O)C[C@@H]1[C@@]3(C)CC[C@H](O[C@@H]4O[C@H](CO)[C@@H](O)[C@H](O)[C@H]4O[C@@H]4O[C@H](CO)[C@@H](O)[C@H](O)[C@H]4O)C(C)(C)[C@@H]3CC[C@]12C [Rb1, ginsenoside Rb1]	90.30	9.6487 ± 0.9377	111.08	11.8699 ± 1.9300	151.12	16.1484 ± 0.6228	–	102.26	2.2306 ± 0.1034	128.85	2.8107 ± 0.1982	157.01	3.4250 ± 0.4805	108.72	increased folate uptake	1.8710 ± 0.0320	increased
